Legend:
[1] = target: T1, human NMB receptor (BB1) (Homo sapiens, UniProt P28336); experiment: BB1 binding assay ([125I][Tyr4]bombesin displacement, CHO-K1 membranes)
T1 construct: expressed in transfected cells; membranes prepared from the cells
In short: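 Competition against <0.1 nM [125I][Tyr4]bombesin, 60 min for the NMB receptor and 90 min for the GRP receptor, using homogenised membranes of human-receptor-expressing CHO-K1 cells in pH 7.4 Tris buffer. Bound label was filtered and gamma-counted, with 1 μM bombesin as nonspecific. Ki values came from IC50 via Cheng-Prusoff.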

[2] = target: T2, human GRP receptor (BB2) (Homo sapiens, UniProt P30550); experiment: BB2 binding assay ([125I][Tyr4]bombesin displacement, CHO-K1 membranes)
T2 construct: expressed in transfected cells; membranes prepared from the cells
Experimental: In the following experiments, measurement of BB1 and BB2 binding was as follows. CHO-K1 cells stably expressing cloned human NMB (for (BB1 assay) and GRP receptors (for BB2 assay) were routinely grown in Ham's F12 culture medium supplemented with 10% foetal calf serum and 2 mM glutamine. For binding experiments, cells were harvested by trypsinization, and stored frozen at −70° C. in Ham's F12 culture medium containing 5% DMSO until required. On the day of use, cells were thawed rapidly, diluted with an excess of culture medium, and centrifuged for 5 minutes at 2000 g. Cells were resuspended in 50 mM Tris-HCl assay buffer (pH 7.4 at 21° C., containing 0.02% BSA, 40 μg/mL bacitracin, 2 μg/mL chymostatin, 4 μg/mL leupeptin, and 2 μM phosphoramidon), counted, and polytronned (setting 5, 10 sec) before centrifuging for 10 minutes at 28,000 g. The final pellet was resuspended in assay buffer to a final cell concentration of 1.5×10^5/mL. For binding assays, […] aliquots of membranes were incubated with [^125I][Tyr^4]bombesin (<0.1 nM) in the presence and absence of test compounds (final assay volume 250 μL) for 60 minutes and 90 minutes for NMB and GRP receptors, respectively. Nonspecific binding was defined by 1 μM bombesin. Assays were terminated by rapid filtration under vacuum onto Whatman GF/C filters presoaked in 0.2% PEI for >2 hours, and washed 50 mM Tris-HCl (pH 6.9 at 21° C.; 6×1 mL). Radioactivity bound was determined using a gamma counter.
All competition data was analysed using nonlinear regression utilizing iterative curve-plotting procedures in Prism® (GraphPad Software Inc., San Diego, USA). IC50 values were corrected to Ki values using the Cheng-Prusoff equation (Cheng Y., Prusoff W. H., Biochem. Pharmacol. 22: 3099-3108, 1973). obtained are listed in Table 1.

[3] = Table 3, N-acyl derivatives of Intermediate III-7
[4] = binding studies to the bombesin receptors
[5] = second 'TABLE 4', N-terminal urethane derivatives of Intermediate III-7

T2 sequence (P30550 whole entry): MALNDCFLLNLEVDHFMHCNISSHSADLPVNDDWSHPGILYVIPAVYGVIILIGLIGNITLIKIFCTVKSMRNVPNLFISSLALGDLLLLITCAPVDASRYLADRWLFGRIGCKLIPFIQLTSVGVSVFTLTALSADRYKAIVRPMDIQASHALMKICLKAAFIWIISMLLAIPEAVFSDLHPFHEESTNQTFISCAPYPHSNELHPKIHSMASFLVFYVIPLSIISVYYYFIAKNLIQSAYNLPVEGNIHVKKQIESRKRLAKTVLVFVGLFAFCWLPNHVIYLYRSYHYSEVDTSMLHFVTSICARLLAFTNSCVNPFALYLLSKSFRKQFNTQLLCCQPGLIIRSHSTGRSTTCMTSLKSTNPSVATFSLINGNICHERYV
T1 sequence (P28336 whole entry): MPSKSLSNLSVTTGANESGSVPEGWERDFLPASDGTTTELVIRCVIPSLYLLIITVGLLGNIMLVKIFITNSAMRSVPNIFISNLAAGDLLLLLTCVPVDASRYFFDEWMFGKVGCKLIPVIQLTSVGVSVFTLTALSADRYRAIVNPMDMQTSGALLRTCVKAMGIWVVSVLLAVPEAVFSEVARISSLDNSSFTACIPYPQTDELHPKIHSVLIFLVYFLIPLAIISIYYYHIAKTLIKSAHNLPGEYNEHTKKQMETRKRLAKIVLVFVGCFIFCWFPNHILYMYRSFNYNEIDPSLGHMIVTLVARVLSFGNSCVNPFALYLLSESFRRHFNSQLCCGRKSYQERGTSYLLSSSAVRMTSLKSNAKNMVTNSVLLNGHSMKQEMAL

Q: How did the IC50 [1, 3] turn out when COc1ccc(CC(=O)N[C@@](C)(Cc2c[nH]c3ccccc23)C(=O)NCC2(c3ccccn3)CCCCC2)cc1 [Example 82, (S)-3-(1H-Indol-3-yl)-2-[2-(4-methoxy-phenyl)-ethanoylamino]-2-methyl-N-(1-pyridin-2-yl-cyclohexylmethyl)-propionamide] was run?
A: 1.69 µM

Q: And the IC50 [2, 3]?
A: > 10 µM

Q: For CN(C)c1ccc(CC(=O)N[C@@](C)(Cc2c[nH]c3ccccc23)C(=O)NCC2(c3ccccn3)CCCCC2)cc1 [Example 83, (S)-2-[2-(4-Dimethylamino-phenyl)-ethanoylamino]-3-(1H-indol-3-yl)-2-methyl-N-(1-pyridin-2-yl-cyclohexylmethyl)-propionamide], which IC50 [1, 3] is on record?
A: 2.71 µM

Q: And the IC50 [2, 3]?
A: > 10 µM

Q: Which results are given for C[C@@](Cc1c[nH]c2ccccc12)(NC(=O)Cc1ccccc1[N+](=O)[O-])C(=O)NCC1(c2ccccn2)CCCCC1 [Example 84, (S)-3-(1H-Indol-3-yl)-2-methyl-2-[2-(2-nitro-phenyl)-ethanoylamino]-N-(1-pyridin-2-yl-cyclohexylmethyl)-propionamide]?
A: IC50 [1, 3]: 1.98 µM; IC50 [2, 3]: > 10 µM

Q: Which IC50 [1, 3] does the source give for COc1ccccc1CC(=O)N[C@@](C)(Cc1c[nH]c2ccccc12)C(=O)NCC1(c2ccccn2)CCCCC1 [Example 85, (S)-3-(1H-Indol-3-yl)-2-[2-(2-methoxy-phenyl)-ethanoylamino]-2-methyl-N-(1-pyridin-2-yl-cyclohexylmethyl)-propionamide] here?
A: 1.33 µM

Q: And the IC50 [2, 3]?
A: 2.48 µM

Q: How did the IC50 [1, 4] turn out when COc1ccc(C2(CNC(=O)[C@](C)(Cc3c[nH]c4ccccc34)NC(=O)c3cc4ccccc4[nH]3)CCCCC2)nc1 [Example 86, 1H-Indole-2-carboxylic Acid ((S)-2-(1H-indol-3-yl)-1-{[1-(5-methoxy-pyridin-2-yl)-cyclohexylmethyl]-carbamoyl}-1-methyl-ethyl)-amide] was run?
A: 0.011 µM

Q: And the IC50 [2, 4]?
A: 0.119 µM

Q: Which IC50 [1, 5] does the source give for C[C@@](Cc1c[nH]c2ccccc12)(NC(=O)OCc1cccc2ccccc12)C(=O)NCC1(c2ccccn2)CCCCC1 [Example 87, {(S)-2-(1H-Indol-3-yl)-1-methyl-1-[(1-pyridin-2-yl-cyclohexylmethyl)-carbamoyl]-ethyl}-carbamic acid naphthalen-1-ylmethyl ester] here?
A: 0.239 µM

Q: And the IC50 [2, 5]?
A: > 10 µM

Q: Which IC50 [1, 5] does the source give for COc1ccc(COC(=O)N[C@@](C)(Cc2c[nH]c3ccccc23)C(=O)NCC2(c3ccccn3)CCCCC2)cc1OC [Example 88, {(S)-2-(1H-Indol-3-yl)-1-methyl-1-[(1-pyridin-2-yl-cyclohexylmethyl)-carbamoyl]-ethyl}-carbamic acid 3,4-dimethoxy-benzyl ester] here?
A: 1.76 µM

Q: And the IC50 [2, 5]?
A: > 10 µM

Q: C[C@@](Cc1c[nH]c2ccccc12)(NC(=O)OCc1ccc2ccccc2c1)C(=O)NCC1(c2ccccn2)CCCCC1 [Example 89, {(S)-2-(1H-Indol-3-yl)-1-methyl-1-[(1-pyridin-2-yl-cyclohexylmethyl)-carbamoyl]-ethyl}-carbamic acid naphthalen-2-ylmethyl ester] was tested. Which IC50 [1, 5] did it give?
A: 1 µM

Q: And the IC50 [2, 5]?
A: > 10 µM

Q: Which IC50 [1, 5] does the source give for C[C@@](Cc1c[nH]c2ccccc12)(NC(=O)OC1Cc2ccccc2C1)C(=O)NCC1(c2ccccn2)CCCCC1 [Example 90, {(S)-2-(1H-Indol-3-yl)-1-methyl-1-[(1-pyridin-2-yl-cyclohexylmethyl)-carbamoyl]-ethyl}-carbamic acid indan-2-yl ester] here?
A: 0.955 µM

Q: What about the IC50 [2, 5] of the same compound?
A: > 10 µM

Q: C[C@@](Cc1c[nH]c2ccccc12)(NC(=O)OCc1ccc(Cl)c(Cl)c1)C(=O)NCC1(c2ccccn2)CCCCC1 [Example 91, {(S)-2-(1H-Indol-3-yl)-1-methyl-1-[(1-pyridin-2-yl-cyclohexylmethyl)-carbamoyl]-ethyl}-carbamic acid 3,4-dichloro-benzyl ester] was tested. Which IC50 [1, 5] did it give?
A: 0.202 µM

Q: What about the IC50 [2, 5] of the same compound?
A: > 10 µM

Q: COc1ccc(COC(=O)N[C@@](C)(Cc2c[nH]c3ccccc23)C(=O)NCC2(c3ccccn3)CCCCC2)cc1 [Example 92, {(S)-2-(1H-Indol-3-yl)-1-methyl-1-[(1-pyridin-2-yl-cyclohexylmethyl)-carbamoyl]-ethyl}-carbamic acid 4-methoxy-benzyl ester] was tested. Which IC50 [1, 5] did it give?
A: 1.61 µM

Q: And the IC50 [2, 5]?
A: > 10 µM

Q: C[C@@](Cc1c[nH]c2ccccc12)(NC(=O)OCc1ccc(Cl)cc1)C(=O)NCC1(c2ccccn2)CCCCC1 [Example 93, {(S)-2-(1H-Indol-3-yl)-1-methyl-1-[(1-pyridin-2-yl-cyclohexylmethyl)-carbamoyl]-ethyl}-carbamic acid 4-chloro-benzyl ester] was tested. Which IC50 [1, 5] did it give?
A: 0.681 µM

Q: What about the IC50 [2, 5] of the same compound?
A: > 10 µM

Q: For C[C@@](Cc1c[nH]c2ccccc12)(NC(=O)OCc1ccccc1F)C(=O)NCC1(c2ccccn2)CCCCC1 [Example 94, {(S)-2-(1H-Indol-3-yl)-1-methyl-1-[(1-pyridin-2-yl-cyclohexylmethyl)-carbamoyl]-ethyl}-carbamic acid 2-fluoro-benzyl ester], which IC50 [1, 5] is on record?
A: 0.923 µM

Q: What about the IC50 [2, 5] of the same compound?
A: > 10 µM

Q: C[C@@](Cc1c[nH]c2ccccc12)(NC(=O)OCc1ccccc1Cl)C(=O)NCC1(c2ccccn2)CCCCC1 [Example 95, {(S)-2-(1H-Indol-3-yl)-1-methyl-1-[(1-pyridin-2-yl-cyclohexylmethyl)-carbamoyl]-ethyl}-carbamic acid 2-chloro-benzyl ester] was tested. Which IC50 [1, 5] did it give?
A: 0.624 µM

Q: And the IC50 [2, 5]?
A: > 10 µM

Q: How did the IC50 [1, 5] turn out when C[C@@](Cc1c[nH]c2ccccc12)(NC(=O)OCc1ccc([N+](=O)[O-])cc1)C(=O)NCC1(c2ccccn2)CCCCC1 [Example 96, {(S)-2-(1H-Indol-3-yl)-1-methyl-1-[(1-pyridin-2-yl-cyclohexylmethyl)-carbamoyl]-ethyl}-carbamic acid 4-nitro-benzyl ester] was run?
A: 0.041 µM

Q: What about the IC50 [2, 5] of the same compound?
A: 0.463 µM

Q: Cc1ccccc1COC(=O)N[C@@](C)(Cc1c[nH]c2ccccc12)C(=O)NCC1(c2ccccn2)CCCCC1 [Example 97, {(S)-2-(1H-Indol-3-yl)-1-methyl-1-[(1-pyridin-2-yl-cyclohexylmethyl)-carbamoyl]-ethyl}-carbamic acid 2-methyl-benzyl ester] was tested. Which IC50 [1, 5] did it give?
A: 0.751 µM

Q: What about the IC50 [2, 5] of the same compound?
A: > 10 µM

Q: CC(C)(C)c1ccc(COC(=O)N[C@@](C)(Cc2c[nH]c3ccccc23)C(=O)NCC2(c3ccccn3)CCCCC2)cc1 [Example 98, {(S)-2-(1H-Indol-3-yl)-1-methyl-1-[(1-pyridin-2-yl-cyclohexylmethyl)-carbamoyl]-ethyl}-carbamic acid 4-tert-butyl-benzyl ester] was tested. Which IC50 [1, 5] did it give?
A: 1.99 µM

Q: What about the IC50 [2, 5] of the same compound?
A: > 10 µM

Q: C[C@@](Cc1c[nH]c2ccccc12)(NC(=O)OCc1cccc([N+](=O)[O-])c1)C(=O)NCC1(c2ccccn2)CCCCC1 [Example 99, {(S)-2-(1H-Indol-3-yl)-1-methyl-1-[(1-pyridin-2-yl-cyclohexylmethyl)-carbamoyl]-ethyl}-carbamic acid 3-nitro-benzyl ester] was tested. Which IC50 [1, 5] did it give?
A: 0.017 µM

Q: And the IC50 [2, 5]?
A: 0.612 µM

Q: For COc1ccccc1COC(=O)N[C@@](C)(Cc1c[nH]c2ccccc12)C(=O)NCC1(c2ccccn2)CCCCC1 [Example 100, {(S)-2-(1H-Indol-3-yl)-1-methyl-1-[(1-pyridin-2-yl-cyclohexylmethyl)-carbamoyl]-ethyl}-carbamic acid 2-methoxy-benzyl ester], which IC50 [1, 5] is on record?
A: 0.818 µM

Q: What about the IC50 [2, 5] of the same compound?
A: > 10 µM

Q: How did the IC50 [1, 5] turn out when C[C@@](Cc1c[nH]c2ccccc12)(NC(=O)OCc1ccc(C(F)(F)F)cc1)C(=O)NCC1(c2ccccn2)CCCCC1 [Example 101, {(S)-2-(1H-Indol-3-yl)-1-methyl-1-[(1-pyridin-2-yl-cyclohexylmethyl)-carbamoyl]-ethyl}-carbamic acid 4-trifluoromethyl-benzyl ester] was run?
A: 1.1 µM

Q: And the IC50 [2, 5]?
A: > 10 µM

Q: Which IC50 [1, 5] does the source give for CCOc1cccc(COC(=O)N[C@@](C)(Cc2c[nH]c3ccccc23)C(=O)NCC2(c3ccccn3)CCCCC2)c1 [Example 102, {(S)-2-(1H-Indol-3-yl)-1-methyl-1-[(1-pyridin-2-yl-cyclohexylmethyl)-carbamoyl]-ethyl}-carbamic acid 3-ethoxy-benzyl ester] here?
A: 1.06 µM

Q: What about the IC50 [2, 5] of the same compound?
A: > 10 µM

Q: Which results are given for C[C@@](Cc1c[nH]c2ccccc12)(NC(=O)OCc1cccc(C#N)c1)C(=O)NCC1(c2ccccn2)CCCCC1 [Example 103, {(S)-2-(1H-Indol-3-yl)-1-methyl-1-[(1-pyridin-2-yl-cyclohexylmethyl)-carbamoyl]-ethyl}-carbamic acid 3-cyano-benzyl ester]?
A: IC50 [1, 5]: 0.085 µM; IC50 [2, 5]: > 10 µM

Q: With Cc1cccc(COC(=O)N[C@@](C)(Cc2c[nH]c3ccccc23)C(=O)NCC2(c3ccccn3)CCCCC2)c1 [Example 105, {(S)-2-(1H-Indol-3-yl)-1-methyl-1-[(1-pyridin-2-yl-cyclohexylmethyl)-carbamoyl]-ethyl}-carbamic acid 3-methyl-benzyl ester] as the compound, how does the IC50 [1, 5] read?
A: 0.841 µM

Q: What about the IC50 [2, 5] of the same compound?
A: > 10 µM

— patent US20020169101A1, “Treatment of sexual dysfunction” (priority 1999, published 2002)
